The target in one series is T1, human recombinant DPP-IV (Homo sapiens, UniProt P27487).
T1 construct: purchased R&D Systems, USA
Put plainly: Inhibition of human recombinant DPP-IV (Gly-Pro-AMC fluorometric assay). In kind it is biochemical. The protocol:
Inhibition of Human Recombinant DPP-IV
The proteolytic activity of human recombinant DPP-IV was determined by following the hydrolysis of Gly-Pro-7-amino-4-methylcoumarin (Gly-Pro-AMC) and the fluorometric quantitation of the liberated AMC. Assays were routinely carried out in 96-well flat-bottom black microwell plates. The reaction mixture (100 μl) contained 10 ng of human recombinant DPP-IV enzyme (produced in-house or procured from R&D Systems, USA) in the assay buffer (25 mM Tris-HCl, pH 7.4, 140 mM NaCl, 10 mM KCl and 0.1 mg/ml BSA) and 50 μM Gly-Pro-AMC. After incubation of assay plates at 30° C. for 30 min, the hydrolysis of Gly-Pro-AMC was monitored in a fluorescence microplate reader (Molecular Devices SpectraMax M5), with excitation and emission wavelengths set at 360 nm and 460 nm, respectively.
The inhibition of DPP-IV activity by test compounds was routinely performed by preincubating the enzyme with test compound (10 and 100 nM for primary screening and 8 concentrations from 0.1 to 1000 nM for the dose-response study) or vehicle (0.01% DMSO) for 15 min at 30° C., in a total volume of 90 μl. Test compounds were dissolved in DMSO at a concentration of 10 mM and serially diluted further in assay buffer. The enzyme reaction was initiated by the addition of Gly-Pro-AMC, followed by incubation of assay plates for 30 min at 30° C. and the liberated AMC was measured as described above. A known inhibitor of DPP-IV (positive control) was always included in the assay. Test compounds at various concentrations were always evaluated in duplicate, along with substrate blanks, vehicle controls and positive controls.
The results are expressed as percent inhibition of the enzyme activity relative to vehicle controls. Dose-response studies were conducted for those compounds exerting ≧50% inhibition of activity at 10 nM in primary screening. IC50, defined as the inhibitor concentration which caused a 50% decrease of the activity under assay conditions, was computed using GraphPad Prism software, version 5.0. […]

For the next series, the target named is T2, plasma DPP-IV (Canis lupus familiaris, UniProt A0A8I3Q2I8).
T2 construct: from tissue; host or cells: EDTA-plasma of male Beagle dogs after oral dosing (ex vivo)
Put plainly: Measurement of plasma DPP-IV activity in Beagle dogs. It is filed as in vivo. The following applies: dog, male Beagle dogs, single oral dose 3 mg/kg p.o. The protocol:
A. Measurement of Plasma DPP-IV Activity in Beagle Dogs
Overnight-fasted male animals were administered either vehicle or single oral dose of compound. Blood samples were collected prior to dosing and for 12 hours post dose into tubes containing EDTA. EDTA-plasma was separated and DPP-IV activity was measured using a fluorometric assay. Assays were carried out in 96-well flat-bottom black microwell plates. A typical reaction contained 25 μl plasma, 50 μl of 50 μM substrate (Gly-Pro-AMC) and 25 μl assay buffer (25 mM Tris-HCl, pH 7.4, 140 mM NaCl, 10 mM KCl and 1% BSA) in a total reaction volume of 100 μl. Plasma samples were incubated with the substrate for 30 min at 30° C., following which the fluorescence was measured in a microplate fluorescence reader (POLARstar Galaxy), with excitation and emission wavelengths set at 360 nm and 460 nm, respectively. Percent inhibition in plasma DPP-IV activity due to compounds was calculated by comparing with plasma from vehicle-treated animals.

Structures can show the parent of a compound that is named as a salt. Where two headings read alike, the source gives them in different places.

T1 sequence (P27487 whole entry): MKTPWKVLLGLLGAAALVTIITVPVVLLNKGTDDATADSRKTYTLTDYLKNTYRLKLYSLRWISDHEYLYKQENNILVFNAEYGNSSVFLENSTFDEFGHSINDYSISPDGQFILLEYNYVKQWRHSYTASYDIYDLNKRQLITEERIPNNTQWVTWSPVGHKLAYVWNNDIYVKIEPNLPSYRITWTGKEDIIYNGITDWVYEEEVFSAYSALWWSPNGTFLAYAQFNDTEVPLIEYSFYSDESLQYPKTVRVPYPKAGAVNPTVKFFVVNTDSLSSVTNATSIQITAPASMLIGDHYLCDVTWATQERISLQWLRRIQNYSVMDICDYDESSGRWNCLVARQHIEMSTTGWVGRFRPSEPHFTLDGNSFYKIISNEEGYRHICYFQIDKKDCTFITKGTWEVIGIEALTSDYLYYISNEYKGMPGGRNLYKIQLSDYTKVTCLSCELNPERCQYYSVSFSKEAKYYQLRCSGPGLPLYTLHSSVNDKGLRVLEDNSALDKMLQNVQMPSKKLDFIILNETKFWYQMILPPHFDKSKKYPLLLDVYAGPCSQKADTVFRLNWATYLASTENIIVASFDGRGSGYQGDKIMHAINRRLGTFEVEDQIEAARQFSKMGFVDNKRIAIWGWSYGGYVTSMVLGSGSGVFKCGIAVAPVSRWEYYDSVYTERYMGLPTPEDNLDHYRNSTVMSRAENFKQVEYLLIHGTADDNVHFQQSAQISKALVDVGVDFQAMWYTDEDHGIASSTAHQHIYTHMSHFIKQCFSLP
T2 sequence (A0A8I3Q2I8 1-765): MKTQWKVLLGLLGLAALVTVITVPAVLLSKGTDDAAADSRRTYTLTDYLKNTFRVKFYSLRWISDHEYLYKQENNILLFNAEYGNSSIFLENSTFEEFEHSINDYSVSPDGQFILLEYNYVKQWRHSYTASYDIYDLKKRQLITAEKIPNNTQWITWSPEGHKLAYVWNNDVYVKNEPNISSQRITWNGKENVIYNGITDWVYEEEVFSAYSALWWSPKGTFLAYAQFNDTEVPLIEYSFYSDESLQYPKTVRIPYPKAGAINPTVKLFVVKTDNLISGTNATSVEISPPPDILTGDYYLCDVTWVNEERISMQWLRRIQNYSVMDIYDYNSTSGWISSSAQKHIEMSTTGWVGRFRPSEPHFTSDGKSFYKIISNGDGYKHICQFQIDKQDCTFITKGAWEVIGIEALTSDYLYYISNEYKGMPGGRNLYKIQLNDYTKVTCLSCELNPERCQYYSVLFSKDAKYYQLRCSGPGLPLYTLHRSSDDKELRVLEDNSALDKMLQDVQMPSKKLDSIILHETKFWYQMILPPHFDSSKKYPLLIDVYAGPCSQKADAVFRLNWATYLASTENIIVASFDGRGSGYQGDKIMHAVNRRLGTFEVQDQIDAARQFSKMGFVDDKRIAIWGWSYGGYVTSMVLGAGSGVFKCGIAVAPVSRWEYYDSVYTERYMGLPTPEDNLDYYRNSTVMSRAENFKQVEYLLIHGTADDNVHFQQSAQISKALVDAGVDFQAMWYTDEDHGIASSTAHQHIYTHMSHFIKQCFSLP

As for `CN(C)C(=O)N1C2CCC1CC([C@H](N)C(=O)N1[C@H](C#N)C[C@@H]3C[C@@H]31)C2` (stereo partly drawn) (as salt: salt) [Compound 1, (1S,3S,5S)-2-{(2S)-2-Amino-2-[8-(dimethylcarbamoyl)-8-aza-bicyclo[3.2.1]-oct-3-yl]-exo-ethanoyl}-2-azabicyclo[3.1.0]-hexane-3-carbonitrile trifluoro acetic acid salt], the melting point was in the range of 178 to 180 °C.
Same read-out and setting: to `C#C[C@H]1CC[C@@H](C#N)N1C(=O)[C@@H](N)C1CC2CCC(C1)N2C(=O)N(C)C` (stereo partly drawn) (as salt: salt) [Compound 2, (2S,5R)-1-{(2S)-2-Amino-2-[8-(dimethylcarbamoyl)-8-aza-bicyclo[3.2.1]oct-3-yl]-exo-ethanoyl}-5-ethynyl-pyrrolidin-2-carbonitrile trifluoro acetic acid salt] belongs 165 to 167 °C.
With `CN(C)C(=O)N1C2CCC1CC([C@H](N)C(=O)N1[C@H](C#N)C[C@@H]3C[C@@H]31)C2` (stereo partly drawn) [Compound 1, (1S,3S,5S)-2-{(2S)-2-Amino-2-[8-(dimethylcarbamoyl)-8-aza-bicyclo[3.2.1]-oct-3-yl]-exo-ethanoyl}-2-azabicyclo[3.1.0]-hexane-3-carbonitrile trifluoro acetic acid salt], the inhibition at 0.01 µM at human recombinant DPP-IV (compound at 10 nM (primary screening)) is 69%. The inhibition at 0.1 µM on human recombinant DPP-IV (compound at 100 nM (primary screening)) was 94.8%.
As for `C#C[C@H]1CC[C@@H](C#N)N1C(=O)[C@@H](N)C1CC2CCC(C1)N2C(=O)N(C)C` (stereo partly drawn) [Compound 2, (2S,5R)-1-{(2S)-2-Amino-2-[8-(dimethylcarbamoyl)-8-aza-bicyclo[3.2.1]oct-3-yl]-exo-ethanoyl}-5-ethynyl-pyrrolidin-2-carbonitrile trifluoro acetic acid salt], on human recombinant DPP-IV (50 μM Gly-Pro-AMC, 15 min preincubation, 30 min at 30° C.), the IC50 turned out to be 3.3 nM. The inhibition at 3 mg/kg worked out at 91% at plasma DPP-IV (0.5 h post dose, read-out: Plasma DPP-IV Inhibition (%) 0.5 h); 85% at plasma DPP-IV (1 h post dose, read-out: Plasma DPP-IV Inhibition (%) 1 h); 92% on plasma DPP-IV (2 h post dose, read-out: Plasma DPP-IV Inhibition (%) 2 h); 90% on plasma DPP-IV (3 h post dose, read-out: Plasma DPP-IV Inhibition (%) 3 h); 85% at plasma DPP-IV (4 h post dose, read-out: Plasma DPP-IV Inhibition (%) 4 h); 72% at plasma DPP-IV (6 h post dose, read-out: Plasma DPP-IV Inhibition (%) 6 h). In addition, the inhibition at 3 mg/kg on plasma DPP-IV (8 h post dose, read-out: Plasma DPP-IV Inhibition (%) 8 h) was 68%; at plasma DPP-IV (10 h post dose, read-out: Plasma DPP-IV Inhibition (%) 10 h) it was 67%; at plasma DPP-IV (12 h post dose, read-out: Plasma DPP-IV Inhibition (%) 12 h), 62%.
